Data from patent publication US4048307A, “Cyclic adenosine monophosphate 8-substituted derivatives” (priority 1974, dated 1977).

How the values were obtained:
[1] = target: Hog Brain Phosphodiesterase (PDE); test: Inhibition of c-AMP hydrolysis by hog brain phosphodiesterase (PDE); format: biochemical; conditions: for Ki: Lineweaver-Burk plot slope and Dixon plot cross-point, read-out: Inhibition II: Inhibition Constant (Ki); for Inhibition I: Relative Inhibition: c-AMP 1.0, derivative 1.0 millimole/liter
Procedure: **PDE inhibition was evaluated based on the relative inhibition observed
when the sample compound was added at the same molar concentration as tha
of the substrate (1 millimole/liter) and the inhibition constant (ki)
calculated according to the enzymological method (Lineweaver-Burk plot).
The enzyme purification was conducted by ammonium sulfate fractionation and passage through DEAE cellulose column according to the modification of the method of T. S. Teo, T. T. Wang et al. (J. Biol. Chemi. 248, 585). […] Reaction and analysis were carried out as taught by Bucher and Sutherland [J. Biol. Chemi., 237, 1244 (1962)].
*: The values were calculated according the following equation: 100
containing no inhibitor.
**: Ki values were calculated from the slope of Lineweaver-Burk plot and
the cross-point of Dixon plot.?

[2] = system: CHO-Ki cells; test: Reverse transformation of cultured CHO-Ki cells (c-AMP level elevation, membrane permeability by L.R.C.); format: cell-based, Chinese hamster; conditions: for minimal effective concentration: Cricetulus griseus, microscopic analysis after 16 and 30 hours, read-out: L.R.C. (limiting reverse-transformable concentration)
Procedure: We utilized their test system and tested new derivatives as regards the following two properties:
The tests were conducted in the following manner according to the modification of the method of Hsie and Puck:
2. The membrane permeability was evaluated based on the reverse transformation. More specifically, new derivatives were added at a concentration of 10^-3, 5 × 10^-2, 10^-1, 2× 10^-1, 5 × 10^-1 or 1 millimole/liter to the above-mentionedmedium. After 16 and 30 hours, microscopic analysis was conducted, and the limiting reverse-transformable concentration (referred to as "L.R.C.") was determined and the membrane permeability was evaluated, based on the so determined L.R.C. value.
***The membrane permeability was determined based on the minimum
concentration causing the re-transformation of cultured CHO-Ki cells. (Th

[3] = system: Hog Brain Phosphodiesterase (PDE); test: Inhibition of c-AMP hydrolysis by hog brain phosphodiesterase (PDE); format: biochemical; conditions: c-AMP 1.0, derivative 0.5 millimole/liter
[4] = system: protein kinases; conditions: Hsie and Puck; cited from earlier work
[5] = system: Hog Brain Phosphodiesterase (PDE); conditions: Hsie and Puck; cited from earlier work
[6] = system: CHO-Ki cells; conditions: 10^-3 mole/liter; Hsie and Puck; cited from earlier work

SMILES	Ki [1]	Inhibition I: Relative Inhibition [1]	minimal effective concentration [2]	Inhibition I: Relative Inhibition [3]	protein kinase activation (literature) [4]	PDE inhibition (literature) [5]	reverse transformation of CHO-Ki (literature) [6]	Toxic (remark at 10^-3 mole/liter) [2]
CCCCSc1nc2c(N)ncnc2n1[C@@H]1O[C@@H]2COP(=O)(O)O[C@H]2[C@H]1O [8-CH3 (CH2)3 S-c-AMP, 8-n-butylmercapto-c-AMP]	74 µM	64.3%	~400 µM	–	–	–	–	–
CCCCCCCSc1nc2c(N)ncnc2n1[C@@H]1O[C@@H]2COP(=O)(O)O[C@H]2[C@H]1O [8-CH3 (CH2)6 S-c-AMP, 8-n-heptylmercapto-c-AMP]	–	–	300 µM	90.4%	–	–	–	–
CCCC(=O)Nc1ncnc2c1ncn2[C@@H]1O[C@@H]2COP(=O)(O)O[C@H]2[C@H]1OC(=O)CCC [N^6,O^2' -dibutyryl-c-AMP]	–	–	–	–	activate protein kinases	inhibits PDE to elevate the intracellular c-AMP level	reversely transformed from the epitherial form to the fibroblast form	–
CCCCCCCNc1nc2c(N)ncnc2n1[C@@H]1O[C@@H]2COP(=O)(O)O[C@H]2[C@H]1O [8-CH3 (CH2)6 NH-c-AMP, 8-n-heptylamino-c-AMP]	26 µM	78.2%	–	–	–	–	–	–
Nc1ncnc2c1nc(Br)n2[C@@H]1O[C@@H]2COP(=O)(O)O[C@H]2[C@H]1O [Example 8-Br-c-AMP, 8-bromo-c-AMP, reference compound]	470 µM	38.9%	~200 µM	–	–	–	–	–
CCCCCCCCCNc1nc2c(N)ncnc2n1[C@@H]1O[C@@H]2COP(=O)(O)O[C@H]2[C@H]1O [8-CH3 (CH2)8 NH-c-AMP, 8-n-nonylamino-c-AMP]	27 µM	–	–	71.3%	–	–	–	–
CCCCCCSc1nc2c(N)ncnc2n1[C@@H]1O[C@@H]2COP(=O)(O)O[C@H]2[C@H]1O [8-CH3 (CH2)5 S-c-AMP, 8-n-hexylmercapto-c-AMP]	19 µM	92.4%	300 µM	–	–	–	–	–
CCCNc1nc2c(N)ncnc2n1[C@@H]1O[C@@H]2COP(=O)(O)O[C@H]2[C@H]1O [8-CH3 (CH2)2 NH-c-AMP, 8-n-propylamino-c-AMP]	230 µM	51.1%	–	–	–	–	–	–
CCCCCCCCCCCCSc1nc2c(N)ncnc2n1[C@@H]1O[C@@H]2COP(=O)(O)O[C@H]2[C@H]1O [8-CH3 (CH2)11 S-c-AMP, 8-n-dodecylmercapto-c-AMP]	140 µM	26.4%	< 5 µM	–	–	–	–	Toxic
CCCCCCCCCCSc1nc2c(N)ncnc2n1[C@@H]1O[C@@H]2COP(=O)(O)O[C@H]2[C@H]1O [8-CH3 (CH2)9 S-c-AMP, 8-n-decylmercapto-c-AMP]	46 µM	–	< 5 µM	68.2%	–	–	–	Toxic
CCCCCCCCCSc1nc2c(N)ncnc2n1[C@@H]1O[C@@H]2COP(=O)(O)O[C@H]2[C@H]1O [8-CH3 (CH2)8 S-c-AMP, 8-n-nonylmercapto-c-AMP]	31 µM	–	10 µM	74.9%	–	–	–	Toxic
CNc1nc2c(N)ncnc2n1[C@@H]1O[C@@H]2COP(=O)(O)O[C@H]2[C@H]1O [8-CH3 NH-c-AMP, 8-methylamino-c-AMP, reference compound]	210 µM	47.6%	~500 µM	–	–	–	–	–
CCCSc1nc2c(N)ncnc2n1[C@@H]1O[C@@H]2COP(=O)(O)O[C@H]2[C@H]1O [8-CH3 (CH2)2 S-c-AMP, 8-n-propylmercapto-c-AMP]	78 µM	60.1%	~400 µM	–	–	–	–	–
CCCCNc1nc2c(N)ncnc2n1[C@@H]1O[C@@H]2COP(=O)(O)O[C@H]2[C@H]1O [8-CH3 (CH2)3 NH-c-AMP, 8-n-butylamino-c-AMP]	120 µM	55.6%	~300 µM	–	–	–	–	–
CCCCCCCCSc1nc2c(N)ncnc2n1[C@@H]1O[C@@H]2COP(=O)(O)O[C@H]2[C@H]1O [8-CH3 (CH2)7 S-c-AMP, 8-n-octylmercapto-c-AMP]	16 µM	95.0%	20 µM	–	–	–	–	Toxic
CCCCCCCCCCCNc1nc2c(N)ncnc2n1[C@@H]1O[C@@H]2COP(=O)(O)O[C@H]2[C@H]1O [8-CH3 (CH2)10 NH-c-AMP, 8-n-undecylamino-c-AMP]	170 µM	–	~50 µM	51.4%	–	–	–	Toxic
CCCCCSc1nc2c(N)ncnc2n1[C@@H]1O[C@@H]2COP(=O)(O)O[C@H]2[C@H]1O [8-CH3 (CH2)4 S-c-AMP, 8-n-amylmercapto-c-AMP]	40 µM	76.7%	400 µM	–	–	–	–	–
CCCCCCNc1nc2c(N)ncnc2n1[C@@H]1O[C@@H]2COP(=O)(O)O[C@H]2[C@H]1O [8-CH3 (CH2)5 NH-c-AMP, 8-n-hexylamino-c-AMP]	58 µM	76.1%	–	–	–	–	–	–
CCCCCCCCNc1nc2c(N)ncnc2n1[C@@H]1O[C@@H]2COP(=O)(O)O[C@H]2[C@H]1O [8-CH3 (CH2)7 NH-c-AMP, 8-n-octylamino-c-AMP]	–	–	–	80.0%	–	–	–	–
CCCCCCCCCCNc1nc2c(N)ncnc2n1[C@@H]1O[C@@H]2COP(=O)(O)O[C@H]2[C@H]1O [8-CH3 (CH2)9 NH-c-AMP, 8-n-decylamino-c-AMP]	82 µM	–	~80 µM	67.6%	–	–	–	Toxic
CCCCCCCCCCCSc1nc2c(N)ncnc2n1[C@@H]1O[C@@H]2COP(=O)(O)O[C@H]2[C@H]1O [8-CH3 (CH2)10 S-c-AMP, 8-n-undecylmercapto-c-AMP]	88 µM	39.1%	< 5 µM	–	–	–	–	Toxic
CCCCCCCCCCCCCNc1nc2c(N)ncnc2n1[C@@H]1O[C@@H]2COP(=O)(O)O[C@H]2[C@H]1O [8-CH3 (CH2)12 NH-c-AMP, 8-n-tridecylamino-c-AMP]	840 µM	–	~90 µM	11.3%	–	–	–	Toxic
CCCCCNc1nc2c(N)ncnc2n1[C@@H]1O[C@@H]2COP(=O)(O)O[C@H]2[C@H]1O [8-CH3 (CH2)4 NH-c-AMP, 8-n-pentylamino-c-AMP]	72 µM	62.3%	–	–	–	–	–	–
CCCCCCCCCCCCNc1nc2c(N)ncnc2n1[C@@H]1O[C@@H]2COP(=O)(O)O[C@H]2[C@H]1O [8-CH3 (CH2)11 NH-c-AMP, 8-n-dodecylamino-c-AMP]	660 µM	–	~70 µM	18.3%	–	–	–	Toxic
